In the test the test system is influenza virus A/PR/8/34 (H1N1). As to the kind of experiment: organism not typed. It is filed as cell-based. The note with it: read-out: IC50 (anti-viral activity, 50% inhibitory concentration).
Setting [1] is: MDCK cells infected with 100TCID50 of influenza A/PR/8/34 (H1N1), treatment for 48 h, Reed-Muench method.

Like-named read-outs stand apart in the source and are kept apart here.

Turning to `O=C1Nc2ccccc2O[C@@H]1O` [Compound of Formula 5, 2-hydroxy-1,4-benzoxazin-3-one], the IC50 under setting [1] was over 200 µM.
As to `O=Cc1c[nH]c2ccccc12` [Compound of Formula 7, 1H-indole-3-carbaldehyde], the IC50 under setting [1] was 42 µM.
The same measure, in the same setting: for `O=C1COc2ccccc2N1` [Compound of Formula 9, 2H-1,4-benzoxazin-3-one] the value was over 200 µM.
Take `C=C(CO)[C@@H]1CC[C@]2(C)CC[C@]3(C)[C@H](CC[C@@H]4[C@@]5(C)CC[C@H](O)C(C)(C)C5CC[C@]43C)[C@@H]12` (stereo partly drawn) [Compound of Formula 19, lup-20(29)-en-3β, 30-diol]: where the note is “MDCK, 48 h”, the IC50 was 33.6 µM.
As to `NC(=O)c1ncn([C@@H]2O[C@H](CO)[C@@H](O)[C@H]2O)n1` [ribavirin, reference compound], the IC50 under setting [1] is 30.4 µM.

The record behind these values is patent US10537601B2, “Method of isolating anti-viral ingredients from Baphicacanthus cusia, compositions comprising them and their medical use” (priority 2016, dated 2020).
